Read-outs that look alike come from different tables or passages of the source.
How the values were obtained:
[1] = TEAC, ABTS decolorization assay; conditions: relative to Trolox
Procedure: TEAC values for the flavonoids were determined as described (Maher, P. et al., Free Radical Research. (2006), supra). Briefly, 250 μl of 2,2′-azinobis(3-ethylbenzothiazoline 6-sulfonate) (ABTS) treated overnight with potassium persulfate and diluted to an OD of ˜0.7 at 734 nm was added to 2.5 μl of a derivative solution in ethanol. The change in absorbance due to the reduction of the ABTS radical cation was measured at 734 nm for 4 min. To calculate the TEAC, the gradient of the plot of the percentage inhibition of absorbance vs. concentration for the derivative in question was divided by the gradient of the plot for Trolox.
(§1) Cell viability was determined after 24 hr by the MTT assay. The ability to maintain GSH (GSH) was determined by treating HT22 cells with different doses of each derivative (1-10 μM) in the presence of 5 mM glutamate. After 24 hr cell extracts were prepared and analyzed for total GSH. Fisetin (10 μM) was used as a positive control. The ability to induce PC12 cell differentiation (PC 12 diff' n) was determined by treating PC12 cells in N2 medium with different doses of each derivative (1-10 μM) for 24 hr. Differentiation was assessed by visual inspection with Fisetin (10 μM) as a positive control. Anti-inflammatory activity (microglia) was assessed in N9 microglial cells treated with bacterial lipopolysaccharide alone or in the presence different doses of each derivative (1-10 μM) for 24 hr. Fisetin was used as a positive control. TEAC values, a measure of direct antioxidant activity, were determined using the ABTS decolorization assay.

[2] = test system: HT22 cells; assay: Maintenance of total GSH in the presence of glutamate; assay type: cell-based, mouse; conditions: derivative 1-10 μM, 5 mM glutamate, 24 hr
Procedure: Total intracellular glutathione was determined by a chemical assay as described (Maher, P. et al., Free Radical Research. (2006) 40 (10), 1105-1111).
(§2) Three secondary screens allowed assessment of three key activities of Fisetin that are highly relevant to stroke, as well as other neurological disorders: maintenance of glutathione (GSH), the major endogenous cellular antioxidant, inhibition of LPS-induced microglial activation, an indicator of anti-inflammatory activity and PC 12 cell differentiation, a measure of neurotrophic activity. All of these activities are relevant to the nerve cell loss seen in stroke (Gelderblom, et al., Stroke. 2009, 40 (5), 1849-1857; Pandya, et al., Cent. Nerv. Syst. Agents. Med. Chem. (2011) April 27; Lewerenz, et al., J. Neurochem. (2010) 113 (2), 502-504). […] To assess GSH maintenance, total intracellular GSH levels after a 24 hr treatment with the compound both in the absence and presence of glutamate, an inducer of GSH loss and oxidative stress (Tan, et al., Curr. Top. Med. Chem. (2001) 1, 497-506; Maher, et al., Free Radical Research. (2006) 40 (10), 1105-1111) was measured. Inhibition of LPS-induced microglial activation was determined by treating N9 mouse microglial cells with LPS alone and in the presence of the compounds and assaying NO release into the medium 24 hr later (Zheng, et al., Int. Immunopharmacol. (2008) 8, (3), 484-494). PC12 cell differentiation was determined by treating PC12 cells with the compounds and looking at neurite outgrowth after 24 hr. In all cases, Fisetin was used as a positive control (Sagara, et al., J. Neurochem. (2004) 90, 1144-1155).
as §1

[3] = test system: PC12 cells; assay: PC12 cell differentiation (neurite outgrowth); assay type: cell-based; conditions: N2 medium, derivative 1-10 μM, 24 hr, visual inspection
Procedure: PC 12 cells in N2 medium were treated with the derivatives (1-10 μM) or Fisetin (10 μM) as a positive control for 24 hr at which time the cells were scored for the presence of neurites. PC12 cells produce neurites much more rapidly when treated in N2 medium than when treated in regular growth medium. For each treatment, 100 cells in each of three separate fields were counted. Cells were scored positive if one or more neurites>1 cell body diameter in length were observed.
as §2, §1

[4] = test system: HT22 cells; assay: In vitro ischemia assay (HT22 cell IAA assay, MTT); assay type: cell-based, mouse; conditions: for Emax: HT-22, HT22 Cell IAA assay, read-out: Max Protection; for fold improvement of neuroprotective activity/potency relative to Fisetin: in vitro ischemia, HT22/IAA
Procedure: Cell viability was determined by a modified version of 3-(4,5-dimethylthiazol-2-yl)-2,5-diphenyl tetrazolium bromide (MTT) assay based on the standard procedure (Maher, et al., Brain Research. (2007), supra). Cells were seeded onto 96-well microtiter plates at a density of 5×10^3 cells per well. For the in vitro ischemia assay, the next day, the medium was replaced with DMEM supplemented with 7.5% DFCS and the cells were treated with 20 μM iodoacetic acid (IAA) alone or in the presence of the different derivatives. After 2 hr the medium in each well was aspirated and replaced with fresh medium without IAA but containing the derivatives. 20 hr later, the medium in each well was aspirated and replaced with fresh medium containing 2.5 μg/ml MTT. After 4 hr of incubation at 37° C., the cells were solubilized with 100 μl of a solution containing 50% dimethylformamide and 20% SDS (pH 4.7). The absorbance at 570 nm was measured on the following day with a microplate reader (Molecular Devices). Results were confirmed by visual inspection of the wells. Controls included compound alone to test for toxicity and compound with no cells to test for interference with the assay chemistry.
For a primary screen, an in vitro ischemia model in combination with the HT22 nerve cell line (Maher, et al., Brain Research. (2007) 1173, 117-125) was chosen. […] To induce ischemia in the HT22 cells we used iodoacetic acid (IAA), a well-known, irreversible inhibitor of the glycolytic enzyme glyceraldehyde 3-phosphate dehydrogenase (G3PDH) (Winkler, et al., Exp. Eye Res. (2003) 76, 715-723). IAA has been used in a number of other studies to induce ischemia in nerve cells (Reshef, et al., Neurosci. Lett. (1997) 238, 37-40; Sperling, et al., Neursci. Lett. (2003) 351, 137-140; Rego, et al., Neurochem. Res. (1999) 24, 351-358; Sigalov, et al., J. Mol. Neurosci. (2000) 15, 147-154; and Reiner, et al., Neurosci. Lett. (1990) 119, 175-178), including several recent screens for neuroprotective molecules (Biraboneye, et al., J. Med. Chem. (2009) 52 (14), 4358-4369; Biraboneye, et al., Chem. Med. Chem. (2010) 5 (1), 79-85). The changes following IAA treatment of neural cells are very similar to those seen in animal models of ischemic stroke (Lipton, et al., Physiol. Rev. (1999) 79, 1431-1568) and include alterations in membrane potential (Reiner, et al., Neurosci. Lett. (1990) 119, 175-178), breakdown of phospholipids (Taylor, et al., J. Pharmacol. Exp. Ther. (1996) 276, 1224-1231), loss of ATP (Winkler, et al., Exp. Eye Res. (2003) 76, 715-723; Sperling, et al., Neursci. Lett. (2003) 351, 137-140) and an increase in reactive oxygen species (ROS) (Taylor, et al., J. Pharmacol. Exp. Ther. (1996), supra; and Sperling, et al., Neursci. Lett. (2003) 351, 137-140).
as §1
For rapid screening of chemical libraries, a mouse HT22 hippocampal cell death assay induced by addition of the compound iodoacetic acid (IAA) was used. IAA is a well-known, irreversible inhibitor of the glycolytic enzyme glyceraldehyde 3-phosphate dehydrogenase (G3PDH). […]

[5] = Mus musculus, HT-22, HT22 cells, 20 μM IAA for 2 hr, viability after 24 hr by MTT, read-out: EC50 in vitro ischemia
[6] = HT22 cells, 20 μM IAA, read-out: HT22 Cell IAA assay EC50
[7] = Mus musculus, HT-22, HT22 cells, 20 μM IAA, read-out: HT22 Cell IAA assay EC50

## COc1cc(-c2cc(OC)c3ccccc3n2)ccc1O [CMS-017, 4-methoxy-2-(4-hydroxy, 3-methoxyphenyl) quinoline]
[1]
  TEAC: 0.15
[2]
  GSH (ability to maintain GSH): no
[3]
  PC12 diff'n (ability to induce PC12 cell differentiation): no
[4]; [5]
  EC50: 500 nM

## COc1cc(-c2ccc(O)cc2)nc2ccccc12 [CMS-022, 4-methoxy-2-(4-hydroxyphenyl)quinoline]
[1]
  TEAC: 0.81
[2]
  GSH (ability to maintain GSH): no
[3]
  PC12 diff'n (ability to induce PC12 cell differentiation): no
[4]; HT22 cells, 20 μM IAA for 2 hr, viability after 24 hr by MTT
  EC50 in vitro ischemia (μM): no

## COc1cc(-c2ccc(O)cc2O)nc2ccccc12 [CMS-083, 4-methoxy-2-(2,4-dihydroxyphenyl) quinoline]
[1]
  TEAC: 0.05
[2]
  GSH (ability to maintain GSH): no
[3]
  PC12 diff'n (ability to induce PC12 cell differentiation): no
[4]; [5]
  EC50: > 500 nM

## COc1cc(-c2cc(=O)c3cc(C)c(C)cc3o2)ccc1OCc1ccccc1 [CMS-058, 2-(4-(benzyloxy)-3-methoxyphenyl)-6,7-dimethyl-4H-chromen-4-one]
[1]
  TEAC: 0.09
[2]
  GSH (ability to maintain GSH): no
[3]
  PC12 diff'n (ability to induce PC12 cell differentiation): no
[4]; [5]
  EC50: 500 nM

## COc1cc(-c2ccc(N(C)C)cc2)nc2ccccc12 [CMS-109, 4-methoxy-2-(4-dimethylaminophenyl)quinoline]
[1]
  TEAC: 0.06
[2]
  GSH (ability to maintain GSH): no
[3]
  PC12 diff'n (ability to induce PC12 cell differentiation): no
[4]; [5]
  EC50: 60 nM

## CCOc1ccc(-c2oc3cc(C)c(C)cc3c(=O)c2O)cc1OCC [CMS-025, 2-(3,4-diethoxyphenyl)-3-hydroxy-6,7-dimethyl-4H-chromen-4-one]
[1]
  TEAC: 0.84
[2]
  GSH (ability to maintain GSH): no
[3]
  PC12 diff'n (ability to induce PC12 cell differentiation): no
[4]; [5]
  EC50: 500 nM

## Cc1cc(O)c(C(=O)/C=C/c2ccc(O)cc2O)cc1C [CMS-087, (E)-3-(2,4-dihydroxyphenyl)-1-(2-hydroxy-4,5-dimethylphenyl)prop-2-en-1-one]
[1]
  TEAC: 0.93
[2]
  GSH (ability to maintain GSH): no
[3]
  PC12 diff'n (ability to induce PC12 cell differentiation): yes
[4]; [5]
  EC50: 50 nM

## CC(C)c1ccc(O)c(C(=O)/C=C/c2ccc(O)c(O)c2)c1 [CMS-129, (E)-3-(3,4-dihydroxyphenyl)-1-(2-hydroxy-5-isopropylphenyl)prop-2-en-1-one]
[4]; [6]
  EC50: 80 nM
[4]; [7]
  EC50: ≤ 100 nM
[4]; Mus musculus
  Emax: 81%

## O=c1cc(-c2ccc(O)c(O)c2)oc2ccccc12 [PM-001]
[4]; [7]
  EC50: 500 nM
[4]
  fold improvement of neuroprotective activity/potency relative to Fisetin: 6 fold

## COc1ccc(/C=C/C(=O)c2cc(C)c(C)cc2O)cc1O [CMS-088, (E)-1-(2-hydroxy-4,5-dimethylphenyl)-3-(3-hydroxy-4-methoxyphenyl)prop-2-en-1-one]
[1]
  TEAC: 0.12
[2]
  GSH (ability to maintain GSH): no
[3]
  PC12 diff'n (ability to induce PC12 cell differentiation): no
[4]; [5]
  EC50: 200 nM

## CN(C)c1ccc(-c2cc(=O)c3ccc4ccccc4c3o2)cc1 [CMS-120, 2-(4-(dimethylamino)phenyl)-4H-benzo[h]chromen-4-one]
[1]
  TEAC: 0.24
[2]
  GSH (ability to maintain GSH): no
[3]
  PC12 diff'n (ability to induce PC12 cell differentiation): no
[4]; [5]
  EC50: 250 nM

## COc1cc(-c2oc3cc(C)c(C)cc3c(=O)c2O)ccc1CCl [CMS-078, 2-(4-(chloromethyl)-3-methoxyphenyl)-3-hydroxy-6,7-dimethyl-4H-chromen-4-one]
[4]; [7]
  EC50: 134 nM

## O=c1cc(-c2ccc(O)c(O)c2)oc2c1ccc1ccccc12 [CMS-02P, reference compound]
[1]
  TEAC: 0.18
[2]
  GSH (ability to maintain GSH): no
[3]
  PC12 diff'n (ability to induce PC12 cell differentiation): yes
[4]; [5]
  EC50: 80 nM
[4]; [7]
  EC50: ≤ 100 nM
[4]; Mus musculus
  Emax: 86%
[4]
  fold improvement of neuroprotective activity/potency relative to Fisetin: ~40 fold

## COc1cc(-c2oc3c(ccc4ccccc43)c(=O)c2O)ccc1N1CCCC1 [CMS-139, 3-hydroxy-2-(3-methoxy-4-(pyrrolidin-1-yl)phenyl)-4H-benzo[h]chromen-4-one]
[4]; [6]
  EC50: 50 nM
[4]; [7]
  EC50: ≤ 100 nM
[4]; Mus musculus
  Emax: 92%

## O=C(/C=C/c1ccc(N2CCCC2)c(O)c1)c1ccc2ccccc2c1O [CMS-138, (E)-3-(3-hydroxy-4-(pyrrolidin-1-yl)phenyl)-1-(1-hydroxynaphthalen-2-yl)prop-2-en-1-one]
[4]; [7]
  EC50: 70 nM
[4]; Mus musculus
  Emax: 72%

## O=c1cc(-c2ccc(O)c(O)c2)oc2ccc3ccccc3c12 [PM-003]
[4]; [7]
  EC50: 80 nM
[4]
  fold improvement of neuroprotective activity/potency relative to Fisetin: ~40 fold

## COc1cc(/C=C/C(=O)c2ccc3ccccc3c2O)ccc1N1CCCC1 [CMS-137, (E)-1-(1-hydroxynaphthalen-2-yl)-3-(3-methoxy-4-(pyrrolidin-1-yl)phenyl)prop-2-en-1-one]
[4]; [7]
  EC50: 85 nM
[4]; Mus musculus
  Emax: 75%

## O=C1/C(=C/c2ccc(O)c(O)c2)Oc2cc(O)ccc21 [PM-014]
[4]; [7]
  EC50: 49 nM
